Results taken from patent publication US12569467B2, “Small molecules that treat or prevent viral infections” (priority 2022, dated 2026).

Legend:
[1] = system: spike protein of Delta variant; format: binding, SARS-CoV2 Delta variant
[2] = system: spike protein of Omicron variant; format: binding, SARS-CoV2 Omicron variant
[3] = system: SARS-CoV-2 variant Delta Spike protein pseudotyped lentiviral particles; experiment: microbe, parasite or virus in culture; format: cell-based, SARS-CoV-2 Delta variant; conditions: Severe acute respiratory syndrome coronavirus 2, HEK293, read-out: EC50, inhibition of infection of Delta variant
[4] = system: SARS-CoV-2 variant Omicron Spike protein pseudotyped lentiviral particles; experiment: microbe, parasite or virus in culture; format: cell-based, SARS-CoV-2 Omicron variant; conditions: Severe acute respiratory syndrome coronavirus 2, HEK293, read-out: EC50, inhibition of infection of Omicron variant

Compound: O=C1Nc2ccccc2/C1=C\c1ccc(-c2cc(C(F)(F)F)cc(C(F)(F)F)c2)o1 [CD04872SC, 3-({5-[3,5-di(trifluoromethyl)phenyl]-2-furyl}methylidene)indolin-2-one]
- thermal stability change in presence of compound [1]: same stabilizing tendency
- thermal stability change in presence of compound [2]: same stabilizing tendency
- EC50 [3]: 152 µM
- EC50 [4]: 308 µM
